Experimental data: the NIST ThermoML archive (doi:10.1016/j.jct.2011.08.028)
Numbers after ± are expanded uncertainties.

Tests used:
[1] = 101.33 kPa, Liquid; for speed of sound: Sing-around technique in a fixed-path interferometer; for mass density: Vibrating tube method; for viscosity: Capillary tube (Ostwald / Ubbelohde) method
[2] = refractive index (Na D-line) (dimensionless); details: 101.33 kPa, Liquid, Standard Abbe refractometry

CCCn1cc[n+](C)c1.O=S(=O)([N-]S(=O)(=O)C(F)(F)F)C(F)(F)F
Details	mass density, [1] [kg/m3]	refractive index, [2]	speed of sound, [1] [m/s]	viscosity, [1] [mPa·s]
293.15 K	1479.39 ± 0.65	1.42669 ± 0.00037	1243 ± 2	–
298.15 K	1474.44 ± 0.65	1.42525 ± 0.00037	1232 ± 2	43.7 ± 0.6
303.15 K	1469.5 ± 0.65	1.42378 ± 0.00037	1221 ± 2	35.68 ± 0.54
308.15 K	1464.58 ± 0.64	1.42224 ± 0.00037	1210 ± 2	29.51 ± 0.49
313.15 K	1459.67 ± 0.64	1.42076 ± 0.00037	1199 ± 2	24.77 ± 0.46
318.15 K	1454.78 ± 0.63	1.41926 ± 0.00037	1188 ± 2	21.01 ± 0.44
323.15 K	1449.91 ± 0.63	1.41776 ± 0.00037	1178 ± 2	18.04 ± 0.43
328.15 K	1445.06 ± 0.62	1.41625 ± 0.00037	1168 ± 2	15.59 ± 0.42
333.15 K	1440.23 ± 0.62	1.41479 ± 0.00037	1157 ± 2	13.63 ± 0.42
338.15 K	1435.42 ± 0.61	1.41334 ± 0.00037	1147 ± 2	12.02 ± 0.41
343.15 K	1430.62 ± 0.61	1.41185 ± 0.00037	1137 ± 2	10.66 ± 0.41
